We go through 36 compounds from patent US6043248A, “Alpha-substituted pyrimidine-thioalkyl and alkylether compounds as inhibitors of viral reverse transcriptase” (priority 1997, dated 2000).

As usually defined, the IC50 is the midpoint of a concentration-inhibition curve. The term inhibition denotes the change of the read-out against control, counted positive when it falls. High values mean strong suppression, low ones little suppression.

The target of one test is T1, viral reverse transcriptase (Wild Type) (Human immunodeficiency virus type 1 group M subtype B, UniProt P04585).
T1 construct: Viral reverse transcriptase (Wild Type) is found in extracts from bacterial clones; made in house; host or cells: Escherichia coli
Nature of the test: inhibition of viral reverse transcriptase (Wild Type), cell free assay. The test is classed as biochemical. The following applies: 30 minutes at 37° C., read-out: IC50 (Table II, Wild Type). The source says:
(§1) The utility of the pyrimidine-thioalkyl and alkylether anti-AIDS compounds of Formula IA of this invention can be determined by their ability to inhibit viral reverse transcriptase, an enzyme essential for human immunodeficiency virus replication. This enzyme has characteristics which differentiate it from other known cellular polymerases and it is a unique enzyme which is not found in uninfected cells. Viral reverse transcriptase (Wild Type) is found in extracts from bacterial clones prepared according to the procedure described in AIDS Virus Reverse Transcriptase defined by high level expression in Escherichia coli, EMBO J. 6:3133-3137 (1987). P236L viral reverse transcriptase is obtained by PNAS 90: 4713-4717 (1993). Inhibition of this enzyme is determined in a cell free assay which measures the level of radioactive precursors incorporated into DNA. Extracts prepared according to the procedure of Science, 1125-1129 (1981) are incubated in a mixture of inhibitor, 20 mM dithiothreitol, 60 mM sodium chloride, 0.05% NP-40, 10 mM magnesium chloride, 50 mM Tris pH 8.3, 10 μM [^35 S]-labeled deoxynuleoside-5'-triphosphate, 10 μg/ml RNA template (poly rC or poly rG) and 5 μg/ml DNA primer (oligo dG or oligo dT) for 30 minutes at 37° C. Incorporation of radio-labeled percursor is determined by spotting aliquots of the reaction mixture on DE81 paper, washing the papers to remove unincorporated percursor, drying and determining counts. The results (IC50 means the concentration, in μM of drug, required to inhibit the reverse transcriptase activity (P236L and Wild Type) to the extent of 50%) of various assay(s) are combined and reported as % inhibition and/or IC50 (calculated) in Table I (P236L) and Table II (Wild Type).
Take `CC(Sc1nc(N)cc(Cl)n1)c1cc2c(c(Cl)n1)OCC2(C)C` (stereo not drawn) [Example 250, 4-Amino-6-chloro-2-(1-(7-chloro-3,3-dimethyl-2,3-dihydrofuro[2,3c]pyridine-5-yl)ethyl)thio-pyrimidine]: the IC50 came to 153 nM.

`CC(C)c1coc2cnc(C(C)Sc3nc(N)cc(Cl)n3)cc12` (stereo not drawn) [Example 252, 4-Amino-6-chloro-2-(1-(3-(1-methylethyl)furo[2,3c]-pyridin-5-yl)ethyl)thio-pyrimidine]: the IC50 is 175 nM.

Turning to `CCc1coc2c(Cl)nc(C(C)Sc3nc(N)cc(Cl)n3)cc12` (stereo not drawn) [Example 251, 4-Amino-6-chloro-2-(1-(7-chloro-3-ethylfuro-[2,3c]pyridine-5yl)ethyl)thio-pyrimidine], the IC50 stood at 144 nM.

The test is the same for the next values; noted with them: @ 1 μM.
Consider `CC(Sc1nc(N)c(Br)c(Cl)n1)c1cc2ccccc2cn1` (stereo not drawn) [Example 231, 4-Amino-5-bromo-6-chloro-2-(1-(3-isoquinolyl)ethyl)thio-pyrimidine], for which the inhibition at 1 µM was found to be 78%.

The compound `CC(Sc1nc(N)c(Br)c(Cl)n1)c1nccc2c1CCCC2` (stereo not drawn) [Example 236, 4-Amino-5-bromo-6-chloro-2-(1-(1-(5,6,7,8-tetrahydroisoquinolyl))ethyl)thio-pyrimidine] registered an inhibition at 1 µM of 58%.

In the case of `CCN(C)C(=O)/C=C/CSc1nc(N)cc(Cl)n1` [Example 203, (E)-N-ethyl-N-methyl-4-[(4-amino-6-chloro-2-pyrimidinyl)thio]-2-butenamide], at 1 µM the inhibition was 96%.

For the compound `CCC(Sc1nc(N)cc(Cl)n1)c1cc(C)ccn1` (stereo not drawn) [Example 218, 4-Amino-6-chloro-2-(1-(4-methyl-2-pyridyl)propyl)thio-pyrimidine], the inhibition at 1 µM is 84%.

Consider `CN(C)C(=O)/C=C/CSc1nc(N)cc(Cl)n1` [Example 204, (E)-N,N-Dimethyl-4-[(4-amino-6-chloro-2-pyrimidinyl)thio]-2-butenamide], for which testing at 1 µM gave an inhibition of 78%.

The next test concerns the target T2, P236L viral reverse transcriptase (Human immunodeficiency virus type 1 group M subtype B, UniProt P04585, P823L).
T2 construct: P236L viral reverse transcriptase is obtained by PNAS 90: 4713-4717 (1993); made in house
Nature of the test: inhibition of viral reverse transcriptase (P236L), cell free assay. Format: biochemical. The following applies: 30 minutes at 37° C., read-out: IC50 (Table I, P236L).
Text: as §1
On to `Nc1cc(Cl)nc(SCc2ccc3c(c2)CCO3)n1` [Example 168, 4-Amino-6-chloro-2-[(2,3-dihydrobenzofuran-5-ylmethyl)thio]pyrimidine], for which the IC50 was determined as 50 nM.

Take `Nc1cc(Cl)nc(SCC2=Cc3ccccc3CC2)n1` [Example 171, 4-Amino-6-chloro-2-[[(3,4-dihydro-1-naphthalen-2-yl)methyl]thio]-pyrimidine]: the IC50 is 1000 nM.

`Nc1ccnc(SCc2ccc3ccccc3c2)n1` [Example 98, 4-amino-2-(2-naphthylmethylthio)-pyrimidine]: the IC50 came to 5000 nM.

`Nc1cc(Cl)nc(SCc2ccc(F)c(F)c2)n1` [Example 48, 4-amino-6-chloro-2-(3,4-difluorophenylmethylthio)-pyrimidine]: the IC50 turned out to be 500 nM.

Take `Nc1cc(Cl)nc([S+]([O-])Cc2cccc(Br)c2)n1` (stereo not drawn) [Example 67, 4-amino-6-chloro-2-(3-bromophenylmethylsulfinyl)pyrimidine]: the IC50 turned out to be 25000 nM.

On to `Cc1cccc(CSc2nc(N)cc(Cl)n2)c1` [Example 36, 4-amino-6-chloro-2-(3-methylphenylmethylthio)-pyrimidine], for which the IC50 was 50 nM.

On to `Nc1cc(Cl)nc(SCC2=CCCc3ccccc32)n1` [Example 187, 4-Amino-6-chloro-2-[[(3,4-dihydro-1-naphthalenyl)methyl]thio]pyrimidine], for which the IC50 amounted to 600 nM.

Regarding `CCCc1ccnc(CSc2nc(N)cc(Cl)n2)c1` [Example 131, 4-amino-6-chloro-2-[2-(4-propyl)pyridylmethylthio]-pyrimidine], the IC50 stood at 50 nM.

As for `Nc1cc(Cl)nc(SCc2cccc(Br)c2)n1` [Example 43, 4-amino-6-chloro-2-(3-bromophenylmethylthio)-pyrimidine], the IC50 came to 140 nM.

In the case of `Nc1cc(Cl)nc(SCC2=CCc3ccccc32)n1` [Example 155, 4-amino-6-chloro-2-[(1H-inden-3-ylmethyl)thio]pyrimidine], the IC50 came to 5000 nM.

As for `Cc1c(N)nc(SCc2ccc3ccccc3c2)nc1Cl` [Example 90, 4-amino-5-methyl-6-chloro-2-(2-naphthylmethylthio)-pyrimidine], the IC50 turned out to be 5000 nM.

Turning to `Nc1cc(Cl)nc(SCc2ccnc3ccccc23)n1` [Example 181, 4-Amino-6-chloro-2-[(quinolin-4-ylmethyl)thio]pyrimidine], the IC50 came out at 1000 nM.

Consider `Nc1cc(Cl)nc(SCc2c(Cl)cccc2Cl)n1` [Example 167, 4-amino-6-chloro-2-(2,6-dichlorophenyl)methylthio-pyrimidine], for which the IC50 came to 5000 nM.

Turning to `Cc1cc(C)nc(CSc2nc(N)cc(Cl)n2)c1` [Example 121, 4-amino-6-chloro-2-[2-(4,6-dimethyl)pyridylmethylthio]-pyrimidine], the IC50 was found to be 10 nM.

Turning to `Nc1nc(SCc2ccccc2)nc(Cl)c1C1CCCCC1` [Example 53, 4-amino-6-chloro-5-cyclohexyl-2-(benzylthio)-pyrimidine], the IC50 was determined as 15000 nM.

Take `CC(C)Cc1ccnc(CSc2nc(N)cc(Cl)n2)c1` [Example 124, 4-amino-6-chloro-2-[2-(4-(2-methylpropyl))pyridylmethylthio]-pyrimidine]: the IC50 stood at 40000 nM.

Consider `Nc1nc(SCc2cc(Cl)ccn2)nc(Cl)c1F` [Example 149, 4-amino-6-chloro-5-fluoro-2-[2-(4-chloro)pyridylmethylthio]pyrimidine], for which the IC50 was determined as 50 nM.

In the case of `Nc1cc(Cl)nc(SCc2cc(Br)cc(Br)c2)n1` [Example 52, 4-amino-6-chloro-2-(3,5-dibromophenylmethylthio)-pyrimidine], the IC50 worked out at 200 nM.

Take `Nc1nc(SCc2ccccn2)nc(Cl)c1F` [Example 92, 4-amino-5-fluoro-6-chloro-2-(2-pyridylmethylthio)-pyrimidine]: the IC50 was determined as 1000 nM.

Turning to `Cc1cnc(CSc2nc(N)cc(Cl)n2)cn1` [Example 175, 4-Amino-6-chloro-2-[(5-methylpyrazin-2-ylmethyl)thio]pyrimidine], the IC50 was determined as 8000 nM.

On to `Cc1cc(CSc2nc(N)cc(Cl)n2)ncn1` [Example 130, 4-amino-6-chloro-2-[4-(6-methyl)pyrimidinylmethylthio]-pyrimidine], for which the IC50 was 800 nM.

On to `Nc1cc(Cl)nc(SCc2ccccn2)n1` [Example 55, 4-amino-6-chloro-2-(2-pyridylmethylthio)-pyrimidine], for which the IC50 turned out to be 2 nM.

As to `NNc1cc(Cl)nc(SCc2ccccc2)n1` [Example 88, 4-hydrazino-6-chloro-2-(benzylthio)-pyrimidine], the half-maximal inhibitory concentration (IC50) stood at 5000 nM.

As to `Nc1cc(Cl)nc(SCc2ccoc2)n1` [Example 148, 4-Amino-6-chloro-2-[(furan-3-ylmethyl)thio]pyrimidine], the IC50 is 10000 nM.

For the compound `Nc1cc(Cl)nc(SCc2cccc(F)c2)n1` [Example 41, 4-amino-6-chloro-2-(3-fluorophenylmethylthio)-pyrimidine], the 50% inhibitory concentration (IC50) was 200 nM.

With `Nc1cc(Cl)nc(SCc2ccc(Cl)cc2Cl)n1` [Example 51, 4-amino-6-chloro-2-(2,4-dichlorophenylmethylthio)-pyrimidine], the IC50 came to 1000 nM.

Take `COc1c(N)nc(SCc2ccc3ccccc3c2)nc1Cl` [Example 89, 4-amino-5-methoxy-6-chloro-2-(2-naphthylmethylthio)-pyrimidine]: the IC50 is 5000 nM.

Still in this test, the particulars now being: IC50 (Table I, P236L), 30 minutes at 37° C.
Take `Nc1cc(Cl)nc(SCc2ccc(-c3ccccc3)cn2)n1` [Example 133, 4-amino-6-chloro-2-[2-(5-phenyl)pyridylmethylthio]-pyrimidine]: the IC50 came to 1000 nM.
